Test systems include A498 renal; HL-60(TB) leukemia; LOX IMVI melanoma; MCF7 breast; PC-3 prostate; SF-295 CNS; SK-MEL-28 melanoma; SNB-75 CNS; U251 CNS; UACC-257 melanoma.
What all share (test): DTP human tumour cell line panel, 48 h

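Five compound concentrations were applied to cells in 96-well plates for 48 hours; endpoints were derived by simple linear interpolation of the resulting dose-response curve. TGI marks complete inhibition of growth.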 Where a SMILES comes first, the peptide text is derived from it. Bridges are numbered along the chain shown (N, C = ends). The star is where a group is joined. Cbz = O=C(OCc1ccccc1)*

The term TGI denotes the concentration at which net growth stops. A lower TGI goes with greater sensitivity of the cells. In the case of `c1csc(-c2csc(-c3ccsc3)c2)c1`, the TGI with A498 renal is > 100 µM; with HL-60(TB) leukemia, > 100 µM; in the assay on LOX IMVI melanoma, > 100 µM; in the assay on MCF7 breast, > 71.4 µM; in the assay with PC-3 prostate, > 100 µM; with SF-295 CNS, > 100 µM. Also, the total growth inhibition concentration (TGI) with SK-MEL-28 melanoma, in the assay with SNB-75 CNS, in the assay on U251 CNS and in the assay with UACC-257 melanoma was > 100 µM throughout.
As to `CNC(=S)N/N=C(\C)c1nc2ncccc2[nH]1`, the TGI is > 100 µM in the assay on A498 renal; 52.8 µM in the assay on HL-60(TB) leukemia; > 100 µM in the assay on LOX IMVI melanoma; > 100 µM in the assay with MCF7 breast; > 100 µM with PC-3 prostate; > 100 µM in the assay with SF-295 CNS. The TGI with SK-MEL-28 melanoma, with SNB-75 CNS, with U251 CNS and in the assay with UACC-257 melanoma was > 100 µM throughout.
Turning to `N=C(N)SCCCN`, the TGI in the assay with A498 renal is > 100 µM; with HL-60(TB) leukemia it was 7.75 µM; in the assay on LOX IMVI melanoma, 13.6 µM; in the assay with MCF7 breast, > 59.9 µM; in the assay on PC-3 prostate, 54.1 µM; in the assay on SF-295 CNS, > 66.8 µM. Moreover, the TGI in the assay on SK-MEL-28 melanoma was > 86 µM; with SNB-75 CNS it was > 100 µM; in the assay with U251 CNS it was 24.6 µM; in the assay with UACC-257 melanoma it was 26 µM.
`N#Cc1c(Nc2nc3ccccc3s2)c2ccccc2n2c1nc1ccccc12`: the TGI with A498 renal, in the assay on HL-60(TB) leukemia, in the assay with LOX IMVI melanoma, in the assay with MCF7 breast, in the assay on PC-3 prostate and with SF-295 CNS was > 100 µM in each case. For the same compound, the TGI is > 100 µM with SK-MEL-28 melanoma, 81 µM in the assay on SNB-75 CNS, > 100 µM with U251 CNS and > 100 µM in the assay with UACC-257 melanoma.
Turning to `CC(C)(C)OC(=O)NCC(=O)NC1C/C(=N\O)c2sccc21` (stereo not given), the concentration for total growth inhibition (TGI) with A498 renal, in the assay with HL-60(TB) leukemia, in the assay with LOX IMVI melanoma, in the assay on MCF7 breast, in the assay on PC-3 prostate and in the assay on SF-295 CNS was > 100 µM throughout. Further, the TGI with SK-MEL-28 melanoma, in the assay on SNB-75 CNS, in the assay with U251 CNS and in the assay with UACC-257 melanoma was > 100 µM each time.
Regarding `Cc1cc(C)c2c(=N)c3ccccc3n(CCCCCCO)c2n1`, the TGI with A498 renal was found to be 26.9 µM; in the assay with HL-60(TB) leukemia, 6.19 µM; in the assay with LOX IMVI melanoma it was 5.17 µM; in the assay on MCF7 breast it was 8.56 µM; with PC-3 prostate, 11.9 µM; in the assay with SF-295 CNS, 11.9 µM. Moreover, the TGI came to 33 µM in the assay on SK-MEL-28 melanoma, 5.78 µM with SNB-75 CNS, 13.8 µM in the assay on U251 CNS and 15.8 µM in the assay on UACC-257 melanoma.
With `CC1(C)CCCCCCCCCC(C)(CCCCCCCCCCCCO)C1=O` (stereo not given), the total growth inhibition concentration (TGI) with A498 renal worked out at 35.7 µM; in the assay with HL-60(TB) leukemia, 38.3 µM; in the assay with LOX IMVI melanoma it was 32.3 µM; in the assay with MCF7 breast, 30.5 µM; in the assay on PC-3 prostate, 32.6 µM; with SF-295 CNS, 30.4 µM. In addition, the TGI in the assay on SK-MEL-28 melanoma is 32.6 µM; in the assay on SNB-75 CNS, 29.7 µM; with U251 CNS it was 33 µM; in the assay with UACC-257 melanoma it was 29.9 µM.
Regarding `CSc1ncc2c(n1)-c1ccccc1OC2NC(C)(C)C` (stereo not given), the TGI with A498 renal was 7.36 µM; with HL-60(TB) leukemia, > 100 µM; with LOX IMVI melanoma, > 100 µM; in the assay with MCF7 breast, > 100 µM; in the assay on PC-3 prostate, > 100 µM; in the assay on SF-295 CNS, > 100 µM. Moreover, the TGI is > 100 µM in the assay on SK-MEL-28 melanoma, 88.1 µM with SNB-75 CNS, > 100 µM in the assay with U251 CNS and > 100 µM with UACC-257 melanoma.
As to `O/N=C1/C2CC3CC1(c1ccccc1)CC(/C3=N/O)/C2=N\O` (stereo not given), the TGI in the assay with A498 renal, in the assay on HL-60(TB) leukemia, with LOX IMVI melanoma, with MCF7 breast, in the assay on PC-3 prostate and in the assay with SF-295 CNS was > 100 µM each time. Also, the concentration for total growth inhibition (TGI) in the assay with SK-MEL-28 melanoma, in the assay with SNB-75 CNS, with U251 CNS and in the assay on UACC-257 melanoma was > 100 µM each time.
As for `CCNc1ncnc2c1nnn2CC`, the TGI in the assay with A498 renal, in the assay on HL-60(TB) leukemia, in the assay with LOX IMVI melanoma, in the assay on MCF7 breast, with PC-3 prostate and in the assay on SF-295 CNS was > 100 µM each time. For the same compound, the TGI with SK-MEL-28 melanoma, in the assay with SNB-75 CNS, in the assay with U251 CNS and in the assay with UACC-257 melanoma was > 100 µM in each case.
Turning to `Cc1cc(O)ccc1C1(c2ccc(F)cc2)OC(=O)c2ccccc21` (stereo not given), the TGI is 32.9 µM with A498 renal; > 72.2 µM in the assay on HL-60(TB) leukemia; 6.65 µM in the assay with LOX IMVI melanoma; 4.38 µM in the assay on MCF7 breast; 5.28 µM with PC-3 prostate; 14.2 µM in the assay on SF-295 CNS. Besides, the concentration for total growth inhibition (TGI) was 25.8 µM with SK-MEL-28 melanoma, 8.01 µM in the assay with SNB-75 CNS, > 49.9 µM in the assay on U251 CNS and 26.7 µM in the assay with UACC-257 melanoma.
Turning to `Oc1ccc(Cl)cc1C1=N/C(=N\C/N=C2\N=C(c3cc(Cl)ccc3O)CC(c3ccccc3)N2)NC(c2ccccc2)C1` (stereo not given), the total growth inhibition concentration (TGI) with A498 renal, with HL-60(TB) leukemia, in the assay with LOX IMVI melanoma, in the assay with MCF7 breast, with PC-3 prostate and in the assay with SF-295 CNS was > 100 µM throughout. Also, the TGI in the assay with SK-MEL-28 melanoma, with SNB-75 CNS, in the assay with U251 CNS and with UACC-257 melanoma was > 100 µM in each case.
Regarding `ONC1=Nc2ccccc2OCc2cc(Br)c(Br)cc2COc2ccccc2N=C1NO`, the TGI is 43.2 µM in the assay with A498 renal; 25 µM in the assay on HL-60(TB) leukemia; 45.1 µM in the assay on LOX IMVI melanoma; > 44.7 µM with MCF7 breast; 31.3 µM in the assay with PC-3 prostate; > 53.6 µM with SF-295 CNS. The total growth inhibition concentration (TGI) is > 57.5 µM in the assay with SK-MEL-28 melanoma, > 54.7 µM with SNB-75 CNS, 41.8 µM in the assay on U251 CNS and 56.6 µM in the assay on UACC-257 melanoma.
`O=C(/C=C(\O)c1ccccc1)/C(=C/C(=O)c1ccccc1)NN=C(c1ccccc1)c1ccccc1`: the TGI was > 100 µM in the assay with A498 renal; 6.8 µM in the assay on HL-60(TB) leukemia; > 100 µM in the assay on LOX IMVI melanoma; > 100 µM in the assay on MCF7 breast; > 100 µM in the assay on PC-3 prostate; > 100 µM in the assay on SF-295 CNS. The TGI in the assay on SK-MEL-28 melanoma was > 100 µM; in the assay on SNB-75 CNS it was > 100 µM; with U251 CNS, > 100 µM; in the assay with UACC-257 melanoma, 73.1 µM.
In the case of `Cc1ccnc(NC(=S)Nc2cccc(Cl)c2)c1`, the TGI in the assay with A498 renal, in the assay with HL-60(TB) leukemia, in the assay on LOX IMVI melanoma, in the assay with MCF7 breast, with PC-3 prostate and in the assay on SF-295 CNS was > 100 µM throughout. Moreover, the TGI in the assay on SK-MEL-28 melanoma, with SNB-75 CNS, in the assay with U251 CNS and in the assay with UACC-257 melanoma was > 100 µM each time.
Consider `CCOC(=O)/C(C#N)=C(/NNc1ccccc1)c1ccncc1C(=O)O`, for which the TGI in the assay on A498 renal, in the assay with HL-60(TB) leukemia, in the assay on LOX IMVI melanoma, in the assay on MCF7 breast, in the assay on PC-3 prostate and in the assay with SF-295 CNS was > 100 µM throughout. The TGI in the assay with SK-MEL-28 melanoma, in the assay with SNB-75 CNS, with U251 CNS and in the assay with UACC-257 melanoma was > 100 µM each time.
Take `COC(=O)C1CCCCNC(=O)CCC(NC(=O)OCc2ccccc2)C(=O)N1` (stereo not drawn) (Cbz-Glu-Lys-OMe; lactam 1-2; configuration not given here): the TGI in the assay on A498 renal, with HL-60(TB) leukemia, with LOX IMVI melanoma, in the assay with MCF7 breast, in the assay on PC-3 prostate and with SF-295 CNS was > 100 µM throughout. The TGI with SK-MEL-28 melanoma, with SNB-75 CNS, in the assay on U251 CNS and with UACC-257 melanoma was > 100 µM each time.
Take `COC1=CC(=O)c2c(O)c3c(c(O)c2C1=O)C[C@](C)(O)C[C@@H]3O`: the TGI is 20.1 µM in the assay with A498 renal; 7.91 µM in the assay with HL-60(TB) leukemia; 10.1 µM in the assay on LOX IMVI melanoma; 16.3 µM in the assay with MCF7 breast; > 42.5 µM in the assay on PC-3 prostate; 11.5 µM with SF-295 CNS. In addition, the TGI in the assay on SK-MEL-28 melanoma was 18.4 µM; in the assay on SNB-75 CNS it was 28 µM; in the assay with U251 CNS it was 14.6 µM; with UACC-257 melanoma, 5.28 µM.
As for `COc1cc([C@H]2Oc3c(OC)cc(CCCO)cc3[C@@H]2CO)ccc1O`, the TGI in the assay on A498 renal, in the assay with HL-60(TB) leukemia, with LOX IMVI melanoma, in the assay on MCF7 breast, in the assay on PC-3 prostate and with SF-295 CNS was > 100 µM each time. For the same compound, the TGI in the assay with SK-MEL-28 melanoma, in the assay on SNB-75 CNS, in the assay on U251 CNS and in the assay on UACC-257 melanoma was > 100 µM in each case.
`O=S1(=O)C(c2ccccc2)=C(O)c2ccccc21`: the total growth inhibition concentration (TGI) in the assay on A498 renal, with HL-60(TB) leukemia, in the assay with LOX IMVI melanoma, with MCF7 breast, with PC-3 prostate and with SF-295 CNS was > 100 µM throughout. Besides, the total growth inhibition concentration (TGI) with SK-MEL-28 melanoma, in the assay on SNB-75 CNS, in the assay on U251 CNS and in the assay on UACC-257 melanoma was > 100 µM in each case.

The values are drawn from PubChem BioAssay (NCI).
